This is an account of results in ChEMBL document CHEMBL3826956, “Cholinesterase inhibitory activity of isoquinoline alkaloids from three Cryptocarya species (Lauraceae)” (Bioorg Med Chem, 2016).

Each structure is given as a SMILES string. pIC50, pKi: −log10 of the molar value.

Assay [1] has as its target Cholinesterase (Equus caballus) (UniProt P81908). The experiment in a line: Inhibition of equine serum BChE at 100 ug/ml preincubated for 15 mins followed by addition of S-butyrylthiocholine chloride as substrate measured after 30 mins by Ellman's microplate assay. For orientation: In Ellman's method for cholinesterases, released thiocholine reacts with DTNB.
Assay [2] concerns the target Acetylcholinesterase (Electrophorus electricus) (UniProt O42275). As to the kind of experiment: Inhibition of electric eel AChE at 100 ug/ml preincubated for 15 mins followed by addition of acetylthiocholine iodide as substrate measured after 30 mins by Ellman's microplate assay.
Assay [3] deals with T1, Cholinesterase (Equus caballus, UniProt P81908). The experiment in a line: Inhibition of equine serum BChE preincubated for 15 mins followed by addition of S-butyrylthiocholine chloride as substrate measured after 30 mins by Ellman's microplate assay.
Assay [4] deals with Acetylcholinesterase (Electrophorus electricus, UniProt O42275). The experiment in a line: Inhibition of electric eel AChE preincubated for 15 mins followed by addition of acetylthiocholine iodide as substrate measured after 30 mins by Ellman's microplate assay.
Assay [5] is described as follows: Selectivity ratio, ratio of IC50 for electric eel AChE to equine serum BChE.
The nature of assay [6]: Selectivity ratio, ratio of IC50 for equine serum BChE to electric eel AChE.
In assay [7] the target is T1, Cholinesterase. As to the kind of experiment: Mixed-type inhibition of equine serum BChE preincubated for 15 mins followed by addition of S-butyrylthiocholine chloride as substrate measured after 30 mins by Lineweaver-Burk plot analysis.

Chain of Acetylcholinesterase (O42275 whole entry): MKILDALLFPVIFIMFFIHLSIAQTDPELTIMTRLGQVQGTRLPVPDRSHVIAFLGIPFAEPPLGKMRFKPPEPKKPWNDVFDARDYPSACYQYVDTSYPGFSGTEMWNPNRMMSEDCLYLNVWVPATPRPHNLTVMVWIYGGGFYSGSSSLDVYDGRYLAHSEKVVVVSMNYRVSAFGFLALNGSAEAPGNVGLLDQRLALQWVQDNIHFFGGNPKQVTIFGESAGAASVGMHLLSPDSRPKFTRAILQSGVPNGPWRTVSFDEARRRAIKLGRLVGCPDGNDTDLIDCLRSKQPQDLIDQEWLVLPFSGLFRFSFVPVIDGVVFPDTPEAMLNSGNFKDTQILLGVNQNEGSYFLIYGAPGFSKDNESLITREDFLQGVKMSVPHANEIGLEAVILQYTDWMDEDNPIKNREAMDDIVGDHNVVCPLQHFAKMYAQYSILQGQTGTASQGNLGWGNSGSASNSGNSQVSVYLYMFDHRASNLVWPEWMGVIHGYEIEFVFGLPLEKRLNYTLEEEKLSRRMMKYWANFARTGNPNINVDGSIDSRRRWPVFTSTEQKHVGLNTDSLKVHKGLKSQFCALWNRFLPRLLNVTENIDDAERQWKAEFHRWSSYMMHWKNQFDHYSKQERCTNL
T1 sequence (P81908 whole entry): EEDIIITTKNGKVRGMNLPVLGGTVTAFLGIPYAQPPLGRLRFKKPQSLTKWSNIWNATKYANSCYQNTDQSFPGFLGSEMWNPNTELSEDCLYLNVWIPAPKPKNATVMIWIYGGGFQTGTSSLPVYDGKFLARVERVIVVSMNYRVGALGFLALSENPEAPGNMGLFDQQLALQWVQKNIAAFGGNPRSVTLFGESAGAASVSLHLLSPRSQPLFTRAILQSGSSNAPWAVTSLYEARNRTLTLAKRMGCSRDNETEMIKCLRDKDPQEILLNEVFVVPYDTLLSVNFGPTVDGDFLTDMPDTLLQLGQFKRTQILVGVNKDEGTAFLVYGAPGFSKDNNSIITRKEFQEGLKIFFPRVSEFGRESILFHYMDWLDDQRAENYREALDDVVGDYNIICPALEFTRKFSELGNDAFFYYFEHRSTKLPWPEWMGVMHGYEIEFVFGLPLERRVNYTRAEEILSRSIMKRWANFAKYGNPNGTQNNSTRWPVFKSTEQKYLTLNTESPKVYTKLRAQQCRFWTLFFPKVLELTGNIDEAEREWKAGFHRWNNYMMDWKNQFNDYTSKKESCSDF
Chain of Cholinesterase (Equus caballus) (P81908 whole entry): as above
Chain of Acetylcholinesterase (Electrophorus electricus) (O42275 24-633 limits assumed): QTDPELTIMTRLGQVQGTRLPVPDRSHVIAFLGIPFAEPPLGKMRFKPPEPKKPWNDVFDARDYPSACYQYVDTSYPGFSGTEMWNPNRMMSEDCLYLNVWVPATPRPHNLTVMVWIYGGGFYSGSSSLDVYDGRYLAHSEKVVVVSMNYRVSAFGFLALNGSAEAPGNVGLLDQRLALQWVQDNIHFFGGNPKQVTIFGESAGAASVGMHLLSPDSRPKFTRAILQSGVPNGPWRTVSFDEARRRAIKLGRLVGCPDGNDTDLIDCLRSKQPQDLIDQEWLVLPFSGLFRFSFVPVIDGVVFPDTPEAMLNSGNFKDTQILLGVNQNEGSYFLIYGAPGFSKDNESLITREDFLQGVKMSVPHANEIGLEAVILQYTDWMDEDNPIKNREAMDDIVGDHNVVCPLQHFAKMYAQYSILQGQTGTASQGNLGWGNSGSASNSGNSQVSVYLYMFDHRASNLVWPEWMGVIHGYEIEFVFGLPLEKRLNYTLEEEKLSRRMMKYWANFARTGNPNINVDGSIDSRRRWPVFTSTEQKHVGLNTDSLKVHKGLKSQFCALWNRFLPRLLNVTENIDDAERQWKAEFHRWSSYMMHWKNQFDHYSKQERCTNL

In the case of `COc1cc2c(cc1O)CCN(C)C2Cc1ccc(O)cc1` (stereo not given), the values for the inhibition in assay [1] and in assay [2] were 37.3% and 14.9%, respectively.

With `COc1cc2c(cc1O)C[C@H]1c3c(cc(OC)c(OC)c3-2)CCN1C`, the inhibition (as a rule, the share of the control response that was lost under treatment) worked out at 51% in assay [1] and 38.8% in assay [2]. For the same compound, the pIC50 (commonly the IC50 on a negative log10 scale, so that one unit is a factor of ten) in assay [3] was 3.66.

For `COc1ccc(C[C@H]2c3cc(O)c(OC)cc3CCN2C)cc1O` [(S)-RETICULINE], the results for the inhibition in assay [1] and in assay [2] were 84.1% and 53%, respectively. In addition, the figures for the negative logarithm of the IC50 (pIC50) in assay [4] and in assay [3] were 3.52 and 4.19, respectively. The figures for the Ratio IC50 in assay [5] and in assay [6] were 4.63 and 0.22, respectively.

In the case of `COc1ccc(C2=C(c3ccc(O)cc3)CN3CCC[C@@H]3C2)cc1OC`, the inhibition in assay [1] amounted to 59.4%; in assay [2], 51.4%. Moreover, the pIC50 is 3.70 in assay [4] and 3.78 in assay [3]. Moreover, the figures for the Ratio IC50 in assay [5] and in assay [6] were 1.21 and 0.83, respectively.

For `COc1cc2c3c(c1O)C1(CCC(O)CC1)CC3NCC2` (stereo not given), the inhibition came to 52.1% in assay [1] and 27.9% in assay [2]. Further, the pIC50 in assay [3] was 3.54.

As to `COc1c(OC)c(OC)c2c(ccc3ccccc32)c1CCN(C)C`, the inhibition in assay [1] was found to be 95.2%; in assay [2], 31.6%. Also, the pKi (commonly −log10 of the Ki, conventionally taken in molar units) in assay [7] is 5.17. Further, the pIC50 in assay [3] is 5.40.

In the case of `COc1cc(CCN(C)C)c2ccc3ccccc3c2c1OC`, the inhibition in assay [1] is 83.9%; in assay [2], 2.06%. This compound also showed a pIC50 in assay [3] of 4.71.

As for `COc1cc2c3c(c1OC)-c1cc4c(cc1C[C@@H]3NCC2)OCO4`, the inhibition in assay [1] worked out at 75.8%; in assay [2] it was 50.4%. The pIC50 was 3.69 in assay [4] and 4.02 in assay [3]. For the same compound, the Ratio IC50 in assay [5] came out at 2.18; in assay [6], 0.46.

Regarding `COc1cc2c(cc1O)C[C@@H]1NCCc3cc(OC)c(OC)c-2c31`, the figures for the inhibition in assay [1] and in assay [2] were 22.6% and 17.5%, respectively.
